For experiment [1], the target named is A-Raf kinase (SEQ. ID No: 1) (Homo sapiens (Human), UniProt P10398, Y301D/Y302D). As to the kind of experiment: Biochemical Assay for A-Raf (1). The settings on record: Table J, assay version (1); read-out: ARAF (1) IC50. The method, boiled down: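 IC50 values were derived by four-parameter sigmoidal fitting of percent inhibition, calculated from reaction rates over the 4–5 h window. Absorbance at 340 nm was tracked for 6 h at 30 °C via coupled PK/LDH NADH depletion. Conditions: 1 mM ATP, 30.1 nM MEK substrate, 5.55 nM A-Raf (Y301D/Y302D), Tris pH 7.5, 1% DMSO.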

Experiment [2] deals with B-Raf (V600E) (SEQ. ID NO: 4) kinase (Homo sapiens (Human), UniProt P15056, V600E). The experiment in a line: Biochemical Assay for B-Raf (V600E) (1). The settings on record: Table J, BRAF V600E, assay version (1); read-out: BRAF VE (1) IC50. The gist of the method:
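Serially diluted compounds tested against 0.03 nM enzyme with 30.1 nM MEK substrate and 1 mM ATP (Tris pH 7.5, 15 mM MgCl2), ATP use coupled to NADH loss via PK/LDH. A340 monitored continuously 6 h, 30 °C; IC50 fitted (four-parameter) from the 3–4 h rate versus no-compound and known-inhibitor controls.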

The test system of experiment [3] is Miapaca-2 cells. The experiment in a line: MiaPaca-2 Cell Proliferation Assay (1). The class given is cell-based. The settings on record: Homo sapiens, MIA PaCa-2, single agent, read-out: MiaPaca2 (1) IC50. The gist of the method: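 Resazurin was added after compound exposure and incubated 5-6 h, then fluorescence read at 540 nm excitation and 600 nm emission to give IC50.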

For experiment [4], the system named is H2405 cells. The experiment in a line: H2405 Cell Proliferation Assay (1). The class given is cell-based. The conditions noted are these: Homo sapiens, NCI-H2405. The gist of the method:
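Viability was read by resazurin reduction (ex 540 nm, em 600 nm; 5-6 h with 40 μL of 440 μM stock) after 67-72 h compound exposure at 37 °C.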

Structures are written as SMILES.

The term IC50 denotes the point on the concentration scale where inhibition reaches its midpoint.

Chain of B-Raf (V600E) (SEQ. ID NO: 4) kinase (P15056 416-766 V600E): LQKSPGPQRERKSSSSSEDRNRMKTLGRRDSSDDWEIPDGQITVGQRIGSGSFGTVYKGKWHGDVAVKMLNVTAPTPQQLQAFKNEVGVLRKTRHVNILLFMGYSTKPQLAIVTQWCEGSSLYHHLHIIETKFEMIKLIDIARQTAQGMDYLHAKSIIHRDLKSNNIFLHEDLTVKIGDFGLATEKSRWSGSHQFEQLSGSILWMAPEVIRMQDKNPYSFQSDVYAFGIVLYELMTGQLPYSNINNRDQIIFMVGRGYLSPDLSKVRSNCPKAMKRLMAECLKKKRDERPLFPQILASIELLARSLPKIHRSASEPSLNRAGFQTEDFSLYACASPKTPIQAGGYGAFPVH
Chain of A-Raf kinase (SEQ. ID No: 1) (P10398 other isoform, or with tags, fused parts or gaps Y301D (already in the parent)/Y302D (already in the parent)): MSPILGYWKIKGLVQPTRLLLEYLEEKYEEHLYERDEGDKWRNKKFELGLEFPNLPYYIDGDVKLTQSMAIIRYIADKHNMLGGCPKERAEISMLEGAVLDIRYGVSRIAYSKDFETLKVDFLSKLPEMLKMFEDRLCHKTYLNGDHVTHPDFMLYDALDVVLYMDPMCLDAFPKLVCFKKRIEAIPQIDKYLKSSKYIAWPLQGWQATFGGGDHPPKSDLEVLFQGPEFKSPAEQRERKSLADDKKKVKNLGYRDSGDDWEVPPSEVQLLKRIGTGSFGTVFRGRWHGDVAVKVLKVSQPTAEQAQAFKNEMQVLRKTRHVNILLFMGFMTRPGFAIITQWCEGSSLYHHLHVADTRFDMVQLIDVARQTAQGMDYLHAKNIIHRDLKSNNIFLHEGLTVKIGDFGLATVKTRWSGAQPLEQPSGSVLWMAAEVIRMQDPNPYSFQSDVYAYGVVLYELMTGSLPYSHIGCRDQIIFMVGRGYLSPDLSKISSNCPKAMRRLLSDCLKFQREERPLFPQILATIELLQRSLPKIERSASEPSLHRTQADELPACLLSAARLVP

On to `Cc1ncc(NC(=O)c2cnn(C(C)(C)C)c2)cc1-c1ccnc(-c2ccnc(NC(=O)C3CC3)c2)n1` [Example 283], for which the IC50 is 1 to 10 µM in experiment [1], at most 0.1 µM in experiment [2], 1 to 10 µM in experiment [3] and 0.1 to 0.5 µM in experiment [4].

Take `COC(=O)Nc1cc(-c2cc(-c3cc(NC(=O)c4ccnc(C(C)(C)C#N)c4)c(F)cc3C)ccn2)ccn1` [Example 308]: the IC50 in experiment [1] is 1 to 10 µM; in experiment [2], at most 0.1 µM; in experiment [3], 1 to 10 µM; in experiment [4], at most 0.1 µM.

Turning to `COC(=O)Nc1cc(-c2nccc(-c3cc(NC(=O)c4ccnc(C(C)(C)F)c4)c(F)cc3C)n2)ccn1` [Example 304], the IC50 in experiment [1] is 1 to 10 µM; in experiment [2], at most 0.1 µM; in experiment [3] it was 1 to 10 µM; in experiment [4], 0.1 to 0.5 µM.

For `CC(=O)Nc1cc(-c2cccc(-c3cc(NC(=O)c4ccnc(C(F)(F)F)c4)ccc3C)c2)ncn1` [Example 30], the 50% inhibitory concentration (IC50) was 0.5 to 1 µM in experiment [1], at most 0.1 µM in experiment [2], 1 to 10 µM in experiment [3] and at most 0.1 µM in experiment [4].

Regarding `Cc1cc(F)c(NC(=O)c2ccnc(C(C)(C)F)c2)cc1-c1ccnc(-c2ccnc(NC(=O)C3CC3)c2)c1` [Example 300], the IC50 in experiment [1] is 1 to 10 µM; in experiment [2] it was at most 0.1 µM; in experiment [3], 1 to 10 µM; in experiment [4] it was at most 0.1 µM.

Consider `CNC(=O)c1cc(-c2cnnc(-c3cc(NC(=O)c4ccnc(C(C)(C)F)c4)cnc3C)c2)ccn1` [Example 309], for which the IC50 in experiment [1] fell in the range of 1 to 10 µM; in experiment [2], 0.1 to 0.5 µM; in experiment [3] it was 1 to 10 µM; in experiment [4] it was 1 to 10 µM.

Turning to `Cc1ncc(NC(=O)c2cncc(C(F)F)c2)cc1-c1cccc(-c2cc(NC(=O)C3CC3)ncn2)c1` [Example 280], the IC50 in experiment [1] was 1 to 10 µM; in experiment [2], at most 0.1 µM; in experiment [3] it was 1 to 10 µM; in experiment [4], 0.1 to 0.5 µM.

With `Cc1ncc(NC(=O)c2ccnc(C(C)(C)F)c2)cc1-c1cc(-c2ccnc(NC(=O)C3CC3)c2)cnn1` [Example 310], the IC50 in experiment [1] was 1 to 10 µM; in experiment [2], at most 0.1 µM; in experiment [3], 1 to 10 µM; in experiment [4] it was 0.1 to 0.5 µM.

Turning to `Cc1nc(-c2ccnc(NC(=O)C3CC3)c2)cc(-c2cc(NC(=O)c3ccnc(C4(C#N)CC4)c3)cnc2C)n1` [Example 286], the IC50 in experiment [1] was 1 to 10 µM; in experiment [2] it was at most 0.1 µM; in experiment [3], 1 to 10 µM; in experiment [4], 0.1 to 0.5 µM.

For `Cc1cc(F)c(NC(=O)c2ccnc(C(F)F)c2)cc1-c1ccnc(-c2ccnc(NC(=O)C3CC3)c2)c1` [Example 307], the IC50 is 0.5 to 1 µM in experiment [1], at most 0.1 µM in experiment [2], 1 to 10 µM in experiment [3] and at most 0.1 µM in experiment [4].

For `CNC(=O)c1cc(-c2cc(-c3cc(NC(=O)c4ccnc(C(F)(F)F)c4)ccc3C)cc(C3CC3)n2)ccn1` [Example 27], the IC50 in experiment [1] is 1 to 10 µM; in experiment [2], at most 0.1 µM; in experiment [3], 1 to 10 µM; in experiment [4] it was at most 0.1 µM.

With `Cc1ncc(NC(=O)c2ccnc(C3CC3)c2)cc1-c1nccc(-c2ccnc(NC(=O)C3CC3)c2)n1` [Example 295], the IC50 is 1 to 10 µM in experiment [1], at most 0.1 µM in experiment [2], 1 to 10 µM in experiment [3] and 0.1 to 0.5 µM in experiment [4].

`COC(=O)Nc1cc(-c2cccc(-c3cc(NC(=O)c4ccnc(C5CC5)c4)cnc3C)c2)ccn1` [Example 288]: the concentration for half-maximal inhibition (IC50) is 1 to 10 µM in experiment [1], at most 0.1 µM in experiment [2], 1 to 10 µM in experiment [3] and 1 to 10 µM in experiment [4].

For the molecule `Cc1ccc(NC(=O)c2ccnc(C(C)(C)C#N)c2)cc1-c1ccnc(-c2ccnc3c2CC(=O)N3)c1` [Example 23], the IC50 was 1 to 10 µM in experiment [1], at most 0.1 µM in experiment [2], 1 to 10 µM in experiment [3] and 0.1 to 0.5 µM in experiment [4].

As to `Cc1ncc(NC(=O)C2CCOC(C)(C)C2)cc1-c1cccc(-c2cc(NC(=O)C3CC3)ncn2)c1` (stereo not shown) [Example 348], the IC50 in experiment [1] was 1 to 10 µM; in experiment [2], at most 0.1 µM; in experiment [3], 1 to 10 µM; in experiment [4] it was 1 to 10 µM.

Turning to `COC(=O)Nc1cc(-c2cnnc(-c3cc(NC(=O)c4ccnc(C(C)(C)C#N)c4)c(F)cc3C)c2)ccn1` [Example 299], the 50% inhibitory concentration (IC50) in experiment [1] was 1 to 10 µM; in experiment [2], at most 0.1 µM; in experiment [3] it was 1 to 10 µM; in experiment [4] it was 0.1 to 0.5 µM.

For `COC(=O)Nc1cc(-c2cnnc(-c3cc(NC(=O)c4ccnc(C(C)(C)C#N)c4)ccc3C)c2)ccn1` [Example 305], the IC50 in experiment [1] is 1 to 10 µM; in experiment [2] it was at most 0.1 µM; in experiment [3] it was 1 to 10 µM; in experiment [4], 0.1 to 0.5 µM.

Consider `Cc1nc(-c2ccnc(NC(=O)C3CC3)c2)cc(-c2cc(NC(=O)c3ccnc(C4CC4)c3)cnc2C)n1` [Example 287], for which the IC50 is 1 to 10 µM in experiment [1], at most 0.1 µM in experiment [2], 1 to 10 µM in experiment [3] and 0.5 to 1 µM in experiment [4].

In the case of `CNC(=O)c1cc(-c2cnnc(-c3cc(NC(=O)CCC(C)(C)C#N)cnc3C)c2)ccn1` [Example 333], the 50% inhibitory concentration (IC50) in experiment [1], in experiment [2] and in experiment [4] was 1 to 10 µM throughout.

With `Cc1ccc(NC(=O)C2CCOC(C(C)C)C2)cc1-c1cc(-c2ccnc(NC(=O)C3CC3)c2)cnn1` (stereo not shown) [Example 370], the IC50 in experiment [1] was 1 to 10 µM; in experiment [2] it was at most 0.1 µM; in experiment [4], 0.5 to 1 µM.

Turning to `Cc1ncc(NC(=O)c2ccnc(C3CC3)c2)cc1-c1cccc(-c2cc(NC(=O)C3CC3)ncn2)c1` [Example 291], the IC50 in experiment [1] is 1 to 10 µM; in experiment [2], at most 0.1 µM; in experiment [3] it was 1 to 10 µM; in experiment [4], 0.1 to 0.5 µM.

As to `CNC(=O)c1cc(-c2cnnc(-c3cc(NC(=O)c4ccnc(C(F)(F)F)c4)cnc3C)c2)ccn1` [Example 318], the IC50 in experiment [1], in experiment [2] and in experiment [4] was 1 to 10 µM in each case.

In the case of `Cc1ncc(NC(=O)c2ccnc(C(C)(C)C#N)c2)cc1-c1cccc(-c2ccnc(C(N)=O)c2)c1` [Example 301], the IC50 in experiment [1] was 1 to 10 µM; in experiment [2], at most 0.1 µM; in experiment [3], 1 to 10 µM; in experiment [4], 0.1 to 0.5 µM.

Regarding `Cc1ccc(NC(=O)c2cnnc(C3CC3)c2)cc1-c1cccc(-c2cc(NC(=O)C3CC3)ncn2)c1` [Example 284], the IC50 was 0.5 to 1 µM in experiment [1], at most 0.1 µM in experiment [2], 1 to 10 µM in experiment [3] and 0.5 to 1 µM in experiment [4].

In the case of `COC(=O)Nc1nccc(-c2cccc(-c3cc(NC(=O)c4ccnc(C(C)(C)C#N)c4)cnc3C)c2)n1` [Example 290], the 50% inhibitory concentration (IC50) in experiment [1] is 1 to 10 µM; in experiment [2] it was at most 0.1 µM; in experiment [3] it was 1 to 10 µM; in experiment [4], 1 to 10 µM.

As to `Cc1ncc(NC(=O)c2cn(C(C)C)nn2)cc1-c1nccc(-c2ccnc(NC(=O)C3CC3)c2)n1` [Example 285], the results for the IC50 in experiment [1], in experiment [2] and in experiment [4] were 1 to 10 µM, at most 0.1 µM and 1 to 10 µM, respectively.

For `Cc1ccc(NC(=O)c2ccnc(S(C)(=O)=O)c2)cc1-c1cc(-c2ccnc(NC(=O)C3CC3)c2)cnn1` [Example 332], the figures for the IC50 in experiment [1], in experiment [2] and in experiment [4] were 1 to 10 µM, at most 0.1 µM and 1 to 10 µM, respectively.

As for `CNC(=O)c1cc(-c2cnnc(-c3cc(NC(=O)c4ccnc(C(F)F)c4)cnc3C)c2)ccn1` [Example 330], the 50% inhibitory concentration (IC50) in experiment [1], in experiment [2] and in experiment [4] was 1 to 10 µM throughout.

On to `Cc1ccc(NC(=O)c2cnn(C(C)(C)C)c2)cc1-c1cc(-c2ccnc(NC(=O)C3CC3)c2)cnn1` [Example 321], for which the IC50 was 1 to 10 µM in experiment [1], at most 0.1 µM in experiment [2] and 0.1 to 0.5 µM in experiment [4].

As for `CNC(=O)c1cc(-c2cc(-c3cc(NC(=O)CCC(C)(C)C#N)ccc3C)ccn2)ccn1` [Example 357], the IC50 fell in the range of 1 to 10 µM in experiment [1], 0.5 to 1 µM in experiment [2] and 1 to 10 µM in experiment [4].

For the molecule `COC(=O)Nc1cc(-c2cnnc(-c3cc(NC(=O)c4ccnc(C(F)F)c4)cnc3C)c2)ccn1` [Example 363], the IC50 in experiment [1], in experiment [2] and in experiment [4] was 1 to 10 µM in each case.

Take `Cc1ccc(NC(=O)c2ccnc(C(C)(C)C#N)c2)cc1-c1cc(-c2ccnc(C(=O)NC3CC3)c2)cnn1` [Example 372]: the concentration for half-maximal inhibition (IC50) in experiment [1] was in the range of 1 to 10 µM; in experiment [2], 0.1 to 0.5 µM; in experiment [4] it was 1 to 10 µM.

Take `COC(=O)Nc1cc(-c2cnnc(-c3cc(NC(=O)c4ccnc(C5CC5)c4)cnc3C)c2)ccn1` [Example 362]: the IC50 in experiment [1], in experiment [2] and in experiment [4] was 1 to 10 µM in each case.

Take `CNC(=O)c1cc(-c2cc(-c3cc(NC(=O)c4ccnc(C(C)(C)F)c4)ccc3C)cnc2C)ccn1` [Example 371]: the IC50 in experiment [1] was 1 to 10 µM; in experiment [2], at most 0.1 µM; in experiment [4] it was 0.1 to 0.5 µM.

For `Cc1ccc(NC(=O)c2cn(C(C)C)nn2)cc1-c1cc(-c2ccnc(NC(=O)C3CC3)c2)cnn1` [Example 320], the figures for the IC50 in experiment [1], in experiment [2] and in experiment [4] were 1 to 10 µM, 0.1 to 0.5 µM and 1 to 10 µM, respectively.

For the origin of these results see patent US12319655B2, “RAF kinase inhibitors and methods of use thereof” (Deciphera Pharmaceuticals, LLC, priority 2021, dated 2025).
